Assay results reported in patent US7767659B2, “Synthesis of naturally occurring ecteinascidins and related compounds” (Pharma Mar, S.A., priority 2002, dated 2010).
Like-named read-outs stand apart in the source and are kept apart here.

Assays:
A-549 = assay: cells; conditions: Homo sapiens, A549, 48 h
In short: (§1)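 Colorimetric SRB read (490 nm) on triplicate wells after 48 h at 37 °C, 5% CO2. Dose range 10 to 10^−8 μg/ml; 5×10^3 cells/well pre-attached 18 h.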

HT-29 = assay: cells; conditions: Homo sapiens, HT-29, 48 h
In short: as §1

LoVo = assay: cells; conditions: Homo sapiens, LoVo, 48 h
In short: as §1

DU-145 = assay: Inhibition of cells growth by colorimetric assay (SRB); conditions: Homo sapiens, DU-145, 48 h
In short: as §1

HMEC1 = assay: as above; conditions: for GI50: Homo sapiens, HMEC-1, 48 h
In short: as §1

IGROV-1 = assay: as above; conditions: Homo sapiens, IGROV-1, 48 h
In short: as §1

IGROV-ET = assay: as above; conditions: Homo sapiens, 48 h
In short: as §1

K-562 = assay: as above; conditions: Homo sapiens, K562, 48 h
In short: as §1

LNCaP = assay: as above; conditions: Homo sapiens, LNCaP, 48 h
In short: as §1

LoVo-Dox = assay: as above; conditions: Homo sapiens, 48 h
In short: as §1

PANC-1 = assay: as above; conditions: Homo sapiens, PANC-1, 48 h
In short: as §1

SK-BR-3 = assay: as above; conditions: Homo sapiens, SK-BR-3, 48 h
In short: as §1

SK-MEL-28 = assay: as above; conditions: Homo sapiens, SK-MEL-28, 48 h
In short: as §1

SK-OV-3 = assay: as above
In short: as §1

[1] = as above; conditions: human
In short: as §1

[2] = H-MEC-1, SRB, 48 hours exposure

**Q.** Which GI50 (A-549; read-out: A549 GI50) does the source give for `COc1cc2c(cc1O)CCN[C@]21CS[C@@H]2c3c(OC(C)=O)c(C)c4c(c3[C@H](COC1=O)N1[C@@H]2[C@H]2c3c(cc(C)c(OC)c3O)C[C@@H]([C@@H]1O)N2C)OCO4` [Et-743, ecteinascidin 743, reference compound] here?
**A.** 0.00252 µM

**Q.** What about the CC50 (A-549; read-out: A549 LC50) of the same compound?
**A.** 0.0121 µM

**Q.** What about the IC (TGI) (A-549; read-out: A549 TGI) of the same compound?
**A.** 0.00551 µM

**Q.** What about the GI50 (HT-29; read-out: HT29 GI50) of the same compound?
**A.** 0.00341 µM

**Q.** What about the CC50 (HT-29; read-out: HT29 LC50) of the same compound?
**A.** 13.1 µM

**Q.** What about the IC (TGI) (HT-29; read-out: HT29 TGI) of the same compound?
**A.** 0.0111 µM

**Q.** What about the GI50 (LoVo; read-out: LOVO GI50) of the same compound?
**A.** 0.00156 µM

**Q.** What about the CC50 (LoVo; read-out: LOVO LC50) of the same compound?
**A.** 0.0114 µM

**Q.** And the IC (TGI) (LoVo; read-out: LOVO TGI)?
**A.** 0.00423 µM

**Q.** And the GI50 (DU-145; read-out: DU145 GI50)?
**A.** 0.000618 µM

**Q.** What about the CC50 (DU-145; read-out: DU145 LC50) of the same compound?
**A.** 4.33 µM

**Q.** What about the IC (TGI) (DU-145; read-out: DU145 TGI) of the same compound?
**A.** 0.00129 µM

**Q.** What about the “H-MEC-1 TGI” value (HMEC1; [2]) of the same compound?
**A.** 6.88E−08 Molar

**Q.** What about the GI50 (HMEC1; read-out: H-MEC-1 GI50) of the same compound?
**A.** 0.00903 µM

**Q.** What about the GI50 (IGROV-1; read-out: IGROV GI50) of the same compound?
**A.** 0.000579 µM

**Q.** What about the CC50 (IGROV-1; read-out: IGROV LC50) of the same compound?
**A.** 0.0103 µM

**Q.** What about the IC (TGI) (IGROV-1; read-out: IGROV TGI) of the same compound?
**A.** 0.0026 µM

**Q.** And the GI50 (IGROV-ET; read-out: IGROV-ET GI50)?
**A.** 0.00429 µM

**Q.** What about the CC50 (IGROV-ET; read-out: IGROV-ET LC50) of the same compound?
**A.** 0.0186 µM

**Q.** And the IC (TGI) (IGROV-ET; read-out: IGROV-ET TGI)?
**A.** 0.00786 µM

**Q.** What about the GI50 (K-562; read-out: K562 GI50) of the same compound?
**A.** 0.000347 µM

**Q.** What about the CC50 (K-562; read-out: K562 LC50) of the same compound?
**A.** 0.00106 µM

**Q.** What about the IC (TGI) (K-562; read-out: K562 TGI) of the same compound?
**A.** 0.000605 µM

**Q.** What about the GI50 (LNCaP; read-out: LNCAP GI50) of the same compound?
**A.** 0.00023 µM

**Q.** And the CC50 (LNCaP; read-out: LNCAP LC50)?
**A.** 0.00122 µM

**Q.** And the IC (TGI) (LNCaP; read-out: LNCAP TGI)?
**A.** 0.000529 µM

**Q.** What about the GI50 (LoVo-Dox; read-out: LOVO-DOX GI50) of the same compound?
**A.** 0.0295 µM

**Q.** What about the IC (TGI) (LoVo-Dox; read-out: LOVO-DOX TGI) of the same compound?
**A.** 0.11 µM

**Q.** And the GI50 (PANC-1; read-out: PANC-1 GI50)?
**A.** 0.00159 µM

**Q.** And the CC50 (PANC-1; read-out: PANC-1 LC50)?
**A.** 0.0399 µM

**Q.** What about the IC (TGI) (PANC-1; read-out: PANC-1 TGI) of the same compound?
**A.** 0.00634 µM

**Q.** What about the GI50 (SK-BR-3; read-out: SK-BR3 GI50) of the same compound?
**A.** 0.000479 µM

**Q.** And the CC50 (SK-BR-3; read-out: SK-BR3 LC50)?
**A.** 0.00857 µM

**Q.** And the IC (TGI) (SK-BR-3; read-out: SK-BR3 TGI)?
**A.** 0.00172 µM

**Q.** What about the GI50 (SK-MEL-28; read-out: MEL-28 GI50) of the same compound?
**A.** 0.000742 µM

**Q.** What about the CC50 (SK-MEL-28; read-out: MEL-28 LC50) of the same compound?
**A.** 0.0112 µM

**Q.** What about the IC (TGI) (SK-MEL-28; read-out: MEL-28 TGI) of the same compound?
**A.** 0.00306 µM

**Q.** And the GI50 (SK-OV-3; Homo sapiens, SK-OV-3, 48 h, read-out: SK-OV3 GI50)?
**A.** 0.00131 µM

**Q.** What about the “SK-OV3 TGI” value (SK-OV-3; SK-OV3, SRB, 48 hours exposure) of the same compound?
**A.** 1.30E−08 Molar

**Q.** With `C=CCN1[C@@H]2c3c(cc(C)c(OC)c3OCOCCOC)C[C@H]1[C@H](C#N)N1C2CC2(O)C(=O)C(C)=C3OCOC3=C2[C@@H]1COC(=O)[C@H](CSCC1c2ccccc2-c2ccccc21)NC(=O)OC(C)(C)C` (stereo partly drawn) [compound 10] as the compound, how does the GI50 (A-549; read-out: GI50 A549) read?
**A.** 1010 µM

**Q.** What about the CC50 (A-549; read-out: LC50 A549) of the same compound?
**A.** 1010 µM

**Q.** And the IC (TGI) (A-549; read-out: TGI A549)?
**A.** 1010 µM

**Q.** And the GI50 (HT-29; read-out: GI50 HT29)?
**A.** 1010 µM

**Q.** And the CC50 (HT-29; read-out: LC50 HT29)?
**A.** 1010 µM

**Q.** And the IC (TGI) (HT-29; read-out: TGI HT29)?
**A.** 1010 µM

**Q.** And the CC50 at 48 h [1]?
**A.** 7.63 µM

**Q.** What about the “TGI H-MEC-1” value (HMEC1; [2]) of the same compound?
**A.** 4.06E−06 Molar

**Q.** What about the GI50 (HMEC1; read-out: GI50 H-MEC-1) of the same compound?
**A.** 2.15 µM

**Q.** With `C=CCN1[C@@H]2c3c(cc(C)c(OC)c3O)C[C@H]1[C@H](C#N)N1C2[C@@H]2SCC(=O)C(=O)OC[C@H]1c1c3c(c(C)c(OC(C)=O)c12)OCO3` (stereo partly drawn) [compound 13] as the compound, how does the GI50 (A-549; read-out: GI50 A549) read?
**A.** 3.94 µM

**Q.** What about the CC50 (A-549; read-out: LC50 A549) of the same compound?
**A.** 13.7 µM

**Q.** And the IC (TGI) (A-549; read-out: TGI A549)?
**A.** 7.36 µM

**Q.** And the GI50 (HT-29; read-out: GI50 HT29)?
**A.** 6.02 µM

**Q.** And the CC50 (HT-29; read-out: LC50 HT29)?
**A.** 15.4 µM

**Q.** And the IC (TGI) (HT-29; read-out: TGI HT29)?
**A.** 15.4 µM

**Q.** What about the CC50 at 48 h [1] of the same compound?
**A.** 15.4 µM

**Q.** And the “TGI H-MEC-1” value (HMEC1; [2])?
**A.** 1.54E−05 Molar

**Q.** What about the GI50 (HMEC1; read-out: GI50 H-MEC-1) of the same compound?
**A.** 4.74 µM

**Q.** For `C=CCN1[C@@H]2c3c(cc(C)c(OC)c3O)C[C@H]1[C@H](C#N)N1C2[C@@H]2SC[C@]3(NCCc4cc(O)c(OC)cc43)C(=O)OC[C@H]1c1c3c(c(C)c(OC(C)=O)c12)OCO3` (stereo partly drawn) [compound 14], which GI50 (A-549; read-out: GI50 A549) is on record?
**A.** 2.23 µM

**Q.** And the CC50 (A-549; read-out: LC50 A549)?
**A.** 11.7 µM

**Q.** What about the IC (TGI) (A-549; read-out: TGI A549) of the same compound?
**A.** 5.11 µM

**Q.** What about the GI50 (HT-29; read-out: GI50 HT29) of the same compound?
**A.** 1.77 µM

**Q.** What about the CC50 (HT-29; read-out: LC50 HT29) of the same compound?
**A.** 12.5 µM

**Q.** What about the IC (TGI) (HT-29; read-out: TGI HT29) of the same compound?
**A.** 6.39 µM

**Q.** And the CC50 at 48 h [1]?
**A.** 12.5 µM

**Q.** And the “TGI H-MEC-1” value (HMEC1; [2])?
**A.** 1.25E−05 Molar

**Q.** And the GI50 (HMEC1; read-out: GI50 H-MEC-1)?
**A.** 3 µM
